Consider one molecule from patent US10130598B2, “Methods and compositions for administration of 3-halopyruvate and related compounds for the treatment of cancer” (The Johns Hopkins University, priority 2008, dated 2018).

The subject of one series is MDA MB 231 cells. The series can be described thus: Luminescence ATP assay, MDA MB 231. Type of series: cell-based. The method, then: (§1) Cytotoxicity of 3-BrPA was evaluated by the IC50 values, representing the drug concentration which depletes ATP by 50% compared to non-treated control. On day 1, cells were seeded into 96-well plates in a volume of 100 μl per well. On day 2, the medium of all wells was removed and an aliquot of 100 μl of media having serial dilutions of 3-BrPA in PBS, NaHCO3, NaOH, KOH and KHCO3 was added to the appropriate well. After 24 h of drug exposure cytotoxic effects of 3-BrPA were monitored by cellular ATP level using CellTiter-Glo™ assay reagents from Promega Corp (Madison, Wis.). Briefly, 100 μl assay reagent was added to each well and mixed at room temperature for 2 min to develop luminescent signal. The luminescence intensity (cps) from each sample was determined with a spectrometer (Model Victor III, Perkin Elmer, Mass.). Relative luminescence was calculated in proportion to the numbers of living cells per sample well. The results are expressed as the mean of three independent experiments. The intracellular ATP contents were calculated and normalized by equal cell number and expressed as the percentage of the control cells. The IC50 values were estimated graphically from dose-response plots.
The anti-metabolic effect of 3-BrPA on MCF7 and MDA MB231 cells was examined using luminescence ATP assays, as described above. […]

A short description of series [1]: Effect of 3-BrPA concentration on tolerability of oral administration. It counts as in vivo, nude mice. The settings on record: for Time to death (all mice died): oral. The method, then: To determine the effect of compound concentration on the tolerable dose of 3-BrPA, a series of experiments were performed in nude mice to determine how a change in administered volume, and therefore a change 3-BrPA concentration, would influence compound efficacy and animal survival. For these experiments, 3-BrPa was administered at a dose of 200 mg/kg and a pH of 4.
All mice in group 1 and 2 (n=3 per group) died within 24 hours after receiving 5 mg of 3-BrPA in volumes of […], respectively.

Series [2] relates to Human PANC-10 pancreatic cancer cells. The series can be described thus: Orthotopic xenograft pancreatic cancer model, oral 3-BrPA. Type of series: in vivo, NOD/SCID mice. The settings on record: for Tumor size at day 50: NaHCO3-buffered, oral. The method, then: The efficacy of orally administered 3-BrPA in the treatment of pancreatic cancer was tested using an orthotopic xenograft pancreatic cancer model. Human PANC-10 pancreatic cancer cells were implanted into the pancreas of NOD/SCID mice and allowed to form 4-5 mm^3 sized tumors. Following the establishment of the tumors, tumor-bearing mice were orally administered 250 μl of a NaHCO3-buffered solution containing varying concentrations of 3-BrPA once per day. After 50 days of treatment, the tumor-bearing mice were sacrificed and tumor growth and cancer cell proliferation was analyzed.

Another series concerns H1299 cells. The series can be described thus: Luminescence ATP assay, H1299. Type of series: cell-based. The method, then: as §1
The anti-metabolic effect of 3-BrPA on H1299 cells was examined using luminescence ATP assays, as described above. […]

In another series the test system is HepG2 cells. As to the kind of experiment: ATP dependent luminescence cell viability assay, HepG2. Type of series: cell-based. The source says:
The non-small cell lung cancer (NSCLC) cell line NCI-H1299, the breast cancer cell lines MCF7 and MDA MB 231 and the Hep3B, Hep2G and SK-Hep1 cells were obtained from the American Type Culture Collection (ATCC) (Manassas, Va., USA) and maintained as a monolayer culture in Eagle's minimum essential medium (MEM, Invitrogen, Gaithersburg, Md., USA) supplemented with 10% fetal bovine serum at 37 C and 5% CO2. All treatments were done in triplicate samples on 96-well plates. VX2 cells were maintained as described in Geschwind et al., Cancer Res., 62:3909-3913 (2002).
Cytotoxicity of 3-BrPA was evaluated by the IC50 values, representing the drug concentration which depletes ATP by 50% compared to non-treated control. On day 1, cells were seeded into 96-well plates in a volume of 100 μl per well. On day 2, the medium of all wells was removed and an aliquot of 100 μl of media having serial dilutions of 3-BrPA in PBS, NaHCO3, NaOH, KOH and KHCO3 was added to the appropriate well. […] Briefly, 100 μl assay reagent was added to each well and mixed at room temperature for 2 min to develop luminescent signal. The luminescence intensity (cps) from each sample was determined with a spectrometer (Model Victor III, Perkin Elmer, Mass.). […]
The effects on cell viability and cellular metabolism of 3-BrPA on Hep3B and VX2 cells were examined using luminescence ATP assays, as described above. […]

SMILES strings stand for the structures.

As usually defined, the IC50 is the point on the concentration scale where inhibition reaches its midpoint. Take `O=C(O)C(=O)CBr` [3-BrPA, 3-bromopyruvate]: the “ATP level (bioluminescent quantification)” value in the series with MDA MB 231 cells is “dose and time dependent energy (ATP) depletion”; in the series on H1299 cells, “dose and time dependent energy (ATP) depletion”. Also, the “Time to death (all mice died)” value in series [1] (group 1: 5 mg (200 mg/kg, pH 4) in a volume of 50 ml) is at most 24 h; in series [1] (group 2: 5 mg (200 mg/kg, pH 4) in a volume of 100 ml), at most 24 h. For the same molecule, the “Tolerability of daily oral administration” value in series [1] (group 3: 200 mg/kg, pH 4, volume of 150 ml) is “did not show any signs of discomfort”; in series [1] (group 4: 200 mg/kg, pH 4, volume of 200 ml) it was “did not show any signs of discomfort”; in series [1] (group 5: 200 mg/kg, pH 4, volume of 300 ml) it was “did not show any signs of discomfort”. Besides, the “Tumor size at day 50” value in series [2] (daily dose of 50 mg/kg) is on record as 12-14 mm^3; in series [2] (daily dose of 100 mg/kg), 7-8 mm^3; in series [2] (daily dose of 150 mg/kg), 4-6 mm^3; in series [2] (daily dose of 200 mg/kg), 3-5 mm^3. Besides, the Local metastases entry in series [2] (daily dose of 50 mg/kg), in series [2] (daily dose of 100 mg/kg), in series [2] (daily dose of 150 mg/kg) and in series [2] (daily dose of 200 mg/kg) was “lacked any signs of local metastases” each time. Besides, the Mitotic index in series [2] (daily dose of 50 mg/kg) is 9-10 mitotic cells per field; in series [2] (daily dose of 100 mg/kg) it was 7 mitotic cells per field; in series [2] (daily dose of 150 mg/kg), 2-4 mitotic cells per field; in series [2] (daily dose of 200 mg/kg) it was 1-2 mitotic cells per field. For the same molecule, the Tumor growth result in series [2] (daily dose of 200 mg/kg, day 50) was “no signs of growth”. Also, the “Level of ATP” value in the series on HepG2 cells (3, 24, 48 hours) was “dose and time dependent decrease”. The IC50 in the series on HepG2 cells (at 48 hours, read-out: IC50 (ATP depletion)) was found to be 125 µM.
